# In patent US20220195275A1, “Biocompatible Oil Herders and Methods of Use” (Texas A&M University, priority 2019, published 2022):
# Legend:
# [1] = Conductivity versus temperature / determination of Krafft point; format: physicochemical; details: for Conductivity: SDS (0.1 mol/L) in water
# Procedure: The hand-held conductivity/TDS meter CN 6/TDS 6 of Oakton instruments was used to measure the conductivity and the temperature of the sample.
# Sodium dodecyl sulfate (Ionic surfactant): sodium dodecyl sulfate in deionized water solution (0.1 mol/l) was prepared in a 200 ml glass beaker. The solution was stored in refrigerator at 5° C. for 24 hours. The sodium dodecyl sulfate surfactant has crystallized below the 5° C. atmosphere. The glass beaker was taken out of the refrigerator and placed on a hot plate stirrer. The conductivity meter probe was immersed into the solution. The dual measuring mode of conductivity meter could measure both the conductivity and the temperature. The solution was slightly heated to remain 0.2° C./min increase. The measured conductivity and temperature data were drawn in FIGS. 2A-2B. […]
# Krafft temperature and solubility behavior of the ionic surfactant SDS and the non-ionic surfactant modified konjac glucomannan were discussed in FIGS. 2A-2D. […] The conductivity measurement was proven to be able to identify the Krafft temperature. Krafft temperature is the minimum temperature for surfactant to form micelles. There is an abrupt large solubility increase above the Krafft temperature. Surfactant working temperature should be higher than Krafft temperature for surfactant functioning.
# First, 200 ml of SDS in deionized water solution of 0.1 mol/L concentration was prepared in a 200 ml glass beaker. The solution was left in refrigerator at 5° C. for 24 hours. This process has brought about the crystallization of the surfactant. The glass beaker is taken out of the refrigerator and placed on a hot plate stirrer (CORNING PC-420). The probe stick of the conductivity meter (TDS meter CON 6/TDS 6) is inserted into the solution. The dual measuring mode of conductivity meter can measure both the conductivity and the temperature. The conductivity of the solution is recorded from 12° C. and measured till 28° C. The solution is slightly heated to attain a steady temperature rise. The conductivity is measured at regular intervals of temperature (0.2° C. raise) and noted down. The whole process took about 2.5 hours. […]
# [2] = Herding efficiency of PEG derivatives and commercial surfactants (slick thickness ratio vs herder concentration); details: 25° C.
# Procedure: Herding surfactant is essentially a surface-active agent. To preliminarily investigate the material herding efficiency to oil, suitable polymer surfactants with […] were tested. Polyethylene glycol (PEG) is a water soluble polymer and easy to couple with hydrophobic chain to form surfactant. The experiments were performed at room temperature. The slick thickness ratio is defined as below: […]
# Higher slick thickness ratio implied better herding quality. […] The effectiveness of surfactants at herding oil is directly related to the chemical structure of the PEG derivatives. […] The reason of slick thickness ratio curve of FIG. 8C and FIG. 8D remained flat were assumed to be its internal chemical structure large benzene rings and two side longer carbon chains. The benzene rings and longer carbon chains affected the steric hindrance of materials and largely restricted the hydrophobic side reaction with oil slick. They could not perform herding effect and thus curves in FIG. 8C and FIG. 8D remained flat, and the thickness ratio was close to 1.
# More comparisons were tested to study herder efficiency with different commercial surfactants at varying temperatures and salinity. […] In FIG. 9B, the PEG-monolaurate retained high herding ability under 25° C. […]
# [3] = system: black beans, red beans, and pinto beans; details: in vivo
# From the text: Edible black beans, red beans, and pinto beans were purchased from local supermarket. 12 black beans, 12 red beans, and 9 pinto beans were randomly chosen and set aside in lab atmosphere for 7 days. […] Beans were separated into three plastic petri dishes, into which four black beans, four red beans and three pinto beans each were placed. Three water environments were simulated, and beans were immersed with reference sea water, 0.25 wt % pristine KGM in sea water, and 0.25 wt % modified konjac glucomannan in sea water for 7 days.
molecule,measurement,setting,value
"CCCCCCCCCCCCOS(=O)(=O)[O-].[Na+] [SDS, sodium dodecyl sulfate]",Krafft temperature (sudden large increase in conductivity),[1]; 0.1 mol/L in deionized water,14.6 °C
same,Conductivity,[1]; 13 ° C.,3.07 mS
same,Conductivity,[1]; 13.2 ° C.,3.07 mS
same,Conductivity,[1]; 13.4 ° C.,3.09 mS
same,Conductivity,[1]; 13.6 ° C.,3.1 mS
same,Conductivity,[1]; 13.8 ° C.,3.11 mS
same,Conductivity,[1]; 14 ° C.,3.11 mS
same,Conductivity,[1]; 14.2 ° C.,3.12 mS
same,Conductivity,[1]; 14.4 ° C.,3.14 mS
same,Conductivity,[1]; 14.6 ° C.,3.25 mS
same,Conductivity,[1]; 14.8 ° C.,3.34 mS
same,Conductivity,[1]; 15 ° C.,3.56 mS
same,Conductivity,[1]; 15.2 ° C.,3.82 mS
same,Conductivity,[1]; 15.4 ° C.,4.02 mS
same,Conductivity,[1]; 15.6 ° C.,4.21 mS
same,Conductivity,[1]; 15.8 ° C.,4.3 mS
same,Conductivity,[1]; 16 ° C.,4.35 mS
same,Conductivity,[1]; 16.2 ° C.,4.37 mS
same,Conductivity,[1]; 16.4 ° C.,4.38 mS
same,Conductivity,[1]; 16.6 ° C.,4.34 mS
same,Conductivity,[1]; 16.8 ° C.,4.39 mS
same,Conductivity,[1]; 17 ° C.,4.39 mS
same,Conductivity,[1]; 17.2 ° C.,4.41 mS
same,Conductivity,[1]; 17.4 ° C.,4.43 mS
same,Conductivity,[1]; 17.6 ° C.,4.44 mS
same,Conductivity,[1]; 17.8 ° C.,4.45 mS
same,Conductivity,[1]; 18 ° C.,4.49 mS
same,Conductivity,[1]; 18.6 ° C.,4.5 mS
same,Conductivity,[1]; 19 ° C.,4.51 mS
same,Conductivity,[1]; 19.4 ° C.,4.53 mS
same,Conductivity,[1]; 20 ° C.,4.57 mS
same,Conductivity,[1]; 21 ° C.,4.6 mS
same,Conductivity,[1]; 22 ° C.,4.65 mS
same,Conductivity,[1]; 23 ° C.,4.67 mS
same,Conductivity,[1]; 24 ° C.,4.7 mS
same,Conductivity,[1]; 25 ° C.,4.72 mS
same,Conductivity,[1]; 26 ° C.,4.75 mS
same,Conductivity,[1]; 27 ° C.,4.77 mS
same,Conductivity,[1]; 28 ° C.,4.82 mS
Span-20,herding ability,[2],good herding ability
konjac glucomannan,growth (sprouting) of beans,[3],did not affect the growth of the beans
